Laboratory results taken from ChEMBL document CHEMBL1201862, “PubChem BioAssay data set” (2004).
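These data come from cells grown in 96-well plates and exposed to compound for 48 hours at five concentrations. GI50 is the concentration that inhibits growth by half.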 Active and inactive are the calls of the source. Rule as the data show it: active = GI50 up to about 1.1 µM and inactive = higher.

How the values were obtained:
Assay in all cases: NCI tumour cell line growth inhibition, 48 h
[1] = test system: SNB-19
[2] = test system: SN12C
[3] = test system: IGROV-1
[4] = test system: RPMI-8226
[5] = test system: SK-MEL-5
[6] = test system: UACC-257
[7] = test system: BT-549
[8] = test system: HCC 2998
[9] = test system: TK-10
[10] = test system: MOLT-4
[11] = test system: K562
[12] = test system: SK-MEL-2
[13] = test system: U-251
[14] = test system: ACHN
[15] = test system: UACC-62
[16] = test system: HL-60
[17] = test system: SK-OV-3
[18] = test system: HCT-116
[19] = test system: CAKI-1
[20] = test system: SF-539

Measured: GI50

CN1CCN(C(=S)N(C(=O)c2ccc(Cl)cc2)c2ccccc2)CC1
inactive: [1] > 100 µM | [2] > 100 µM | [3] > 100 µM | [4] > 100 µM | [5] > 100 µM | [6] > 100 µM | [7] > 100 µM | [8] > 100 µM | [9] > 100 µM | [10] > 100 µM | [11] > 100 µM | [12] > 100 µM | [13] > 100 µM | [14] > 100 µM | [15] > 100 µM | [16] > 100 µM

c1ccc(C[n+]2cccc(-c3cc4ccccc4[nH]3)c2)cc1
inactive: [1] 26.5 µM | [17] > 100 µM | [2] 15.4 µM | [3] 19.4 µM | [4] 17.6 µM | [5] 10.6 µM | [18] 32.5 µM | [6] 14.9 µM | [7] 13.4 µM | [9] 32.7 µM | [10] 21.5 µM | [19] > 100 µM | [11] 21.6 µM | [12] 16.6 µM | [13] 34.5 µM | [14] > 100 µM | [15] 15.7 µM | [16] 17.6 µM

Cc1ccc(/C=N/NS(=O)(=O)c2ccc(/C=C3\NC(=O)NC3=O)cc2)cc1
inactive: [1] 31 µM | [17] > 100 µM | [2] > 100 µM | [3] 87.9 µM | [4] > 100 µM | [5] > 100 µM | [18] > 100 µM | [6] > 100 µM | [7] > 100 µM | [8] > 100 µM | [9] > 100 µM | [10] > 100 µM | [19] > 100 µM | [11] > 100 µM | [12] > 100 µM | [13] 40.8 µM | [14] > 100 µM | [15] > 100 µM | [16] > 100 µM

CCOC(=O)/C=C(/OCC)[C@@H]1C(C(=O)c2ccc(Cl)cc2)[C@@H]1/C(=C\C(=O)OCC)OCC (some centres not stated)
inactive: [1] 11.9 µM | [17] 27.2 µM | [2] 17.7 µM | [3] 56.5 µM | [4] 2.79 µM | [5] 4.41 µM | [18] 5.18 µM | [6] 6.75 µM | [7] 48.5 µM | [9] 6.32 µM | [10] 3.98 µM | [19] 16.9 µM | [20] 22.1 µM | [11] 2.62 µM | [12] 56.4 µM | [13] 4.99 µM | [14] 13.2 µM | [15] 28.8 µM | [16] 3.12 µM

O=C(O)c1cnc2[nH]ccn2c1=O
inactive: [1] > 100 µM | [17] > 100 µM | [2] > 100 µM | [3] > 100 µM | [4] > 100 µM | [5] > 100 µM | [18] > 100 µM | [6] > 100 µM | [7] > 100 µM | [8] > 100 µM | [9] > 100 µM | [10] > 100 µM | [11] > 100 µM | [13] > 100 µM | [14] > 100 µM | [15] > 100 µM | [16] > 100 µM

CC(=O)N(C)c1ccc(/N=C/N(C)C)cc1
inactive: [1] > 100 µM | [17] > 100 µM | [2] > 100 µM | [3] > 100 µM | [4] > 100 µM | [5] > 100 µM | [18] > 100 µM | [6] > 100 µM | [7] > 100 µM | [9] > 100 µM | [10] > 100 µM | [19] > 100 µM | [20] > 100 µM | [11] > 100 µM | [12] > 100 µM | [13] > 100 µM | [14] > 100 µM | [15] > 100 µM | [16] > 100 µM

C1=C\SS/C=C\SS/C=C\SS/C=C\SS/1
inactive: [1] 67.5 µM | [17] > 100 µM | [2] > 100 µM | [3] > 100 µM | [4] 58.7 µM | [5] 99.3 µM | [18] > 100 µM | [6] 78.5 µM | [7] > 100 µM | [8] > 100 µM | [9] > 100 µM | [10] 42.3 µM | [19] 30.3 µM | [11] 27.9 µM | [12] > 100 µM | [13] 81.8 µM | [14] > 100 µM | [15] > 100 µM | [16] 24.9 µM

Cc1cc(C)nc(NS(=O)(=O)c2ccc(Nc3nnc(/C=C/c4c(O)ccc5ccccc45)c(=O)n3N)cc2)n1
inactive: [1] 43.1 µM | [17] 51.4 µM | [2] 22.3 µM | [3] 27.9 µM | [4] 30.1 µM | [18] 17.9 µM | [7] 32.7 µM | [10] > 100 µM | [19] 22.1 µM | [11] 27.6 µM | [14] 23 µM | [15] 29 µM | [16] 22.1 µM

Cc1cc2nc3c(C#N)c4c(c(Nc5ccc(F)cc5)n3c2cc1C)CCC4
inactive: [1] > 100 µM | [17] > 100 µM | [2] > 100 µM | [3] > 100 µM | [4] > 100 µM | [5] > 100 µM | [18] > 100 µM | [6] > 100 µM | [7] > 100 µM | [9] > 100 µM | [10] > 100 µM | [19] > 100 µM | [20] > 100 µM | [11] > 100 µM | [12] > 100 µM | [13] > 100 µM | [14] > 100 µM | [15] > 100 µM | [16] > 100 µM

Nc1nc(Nc2ccc(Cl)cc2)sc1C(=O)c1cc2ccccc2oc1=O
inactive: [1] > 100 µM | [17] 20.7 µM | [2] 14.2 µM | [3] 56.6 µM | [4] 29.4 µM | [5] 67.6 µM | [18] 23.1 µM | [6] 69.5 µM | [7] 28 µM | [8] 41.9 µM | [9] > 100 µM | [20] 71.6 µM | [11] 33.8 µM | [12] 7.94 µM | [13] 18.8 µM | [14] > 100 µM | [15] 55.8 µM | [16] 33 µM

NCCN(CCN(C(=O)Nc1ccccc1)c1ccccc1)C(=O)Nc1ccccc1
inactive: [1] 28.6 µM | [17] 20 µM | [2] 23.2 µM | [3] 17.6 µM | [4] 27.5 µM | [5] 18.5 µM | [18] 16.3 µM | [6] 19 µM | [7] 22.7 µM | [8] 19.8 µM | [9] 24.5 µM | [10] 35.5 µM | [11] 44.4 µM | [12] 19.2 µM | [13] 28.9 µM | [14] 20.5 µM | [15] 16.6 µM | [16] 18.9 µM

O=C(NC(CO)Cc1ccc(Oc2cc(CC(CO)NC(=O)OCc3ccccc3)ccc2OC(=O)OCc2ccccc2)cc1)OCc1ccccc1 (configuration not stated)
inactive: [1] 22.4 µM | [17] 21.3 µM | [2] 19.1 µM | [3] 20.3 µM | [4] 2.94 µM | [18] 16.7 µM | [6] 15 µM | [7] 11.7 µM | [8] 16.1 µM | [9] 20.7 µM | [10] 3.32 µM | [19] 26 µM | [20] 20.1 µM | [11] 10.9 µM | [12] 19.3 µM | [14] 19.9 µM | [16] 9.82 µM

Cc1ccc(C)c2c1CC(Cc1ccccc1C(=O)O)C2=O (configuration not stated)
inactive: [1] > 100 µM | [17] > 100 µM | [2] > 100 µM | [3] > 100 µM | [5] > 100 µM | [18] > 100 µM | [6] > 100 µM | [7] > 100 µM | [8] > 100 µM | [9] > 100 µM | [10] > 100 µM | [19] > 100 µM | [20] > 100 µM | [11] > 100 µM | [12] > 100 µM | [13] > 100 µM | [14] > 100 µM | [15] > 100 µM | [16] > 100 µM

O=C(/N=N/c1ccccc1Br)NNc1ccccc1Br
inactive: [1] > 100 µM | [2] 77.6 µM | [3] 55.6 µM | [4] 33.8 µM | [5] 48.4 µM | [18] 24.7 µM | [6] > 100 µM | [7] 82.8 µM | [8] 22.5 µM | [9] > 100 µM | [10] 25.6 µM | [19] 33 µM | [11] 27.3 µM | [12] 35.4 µM | [13] 60.8 µM | [14] 46.1 µM | [15] 48.8 µM | [16] 23.6 µM

COc1ccc(-c2nc3ncccn3c2-c2ccc(S(C)(=O)=O)cc2)cc1
inactive: [1] > 100 µM | [17] 90.4 µM | [2] > 100 µM | [3] 53.8 µM | [4] 41.7 µM | [5] 48.2 µM | [18] > 100 µM | [6] > 100 µM | [7] > 100 µM | [10] > 100 µM | [19] 24.9 µM | [20] > 100 µM | [11] > 100 µM | [12] > 100 µM | [13] > 100 µM | [14] > 100 µM | [15] 53.6 µM | [16] > 100 µM
